In patent US20250073255A1, “USE OF FA-TYPE LIPID COMPOUNDS IN PREPARATION OF NUCLEIC ACID DELIVERY REAGENT AND RELATED PRODUCT” (BEIJING BAISHIKANG PHARMACEUTICAL TECHNOLOGY (BSJPHARMA) …, priority 2021, published 2025):

Tested on: C57BL/6 male mice
Experiment: In vivo delivery study of lipid nucleic acid mixture (oral gavage, RT-qPCR of PGY-sRNA-26 in tissues)
Design: species or system mouse
Conditions: 100 μg lipid:10 nmol PGY-sRNA-26, sampled after 12 hours; for oral delivery of single-stranded sRNA nucleic acids into mouse heart tissue: vs free uptake group; for oral delivery of single-stranded sRNA nucleic acids into mouse intestinal tissue: intestine; for oral delivery of single-stranded sRNA nucleic acids into mouse pancreatic tissue: pancreas
Method in brief: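 Stem-loop RT and SYBR qPCR, normalized to U6, measured PGY-sRNA-26 in blood and organs 12 h after gavage. Dosing was 10 nmol sRNA with 100 μg lipid, pre-mixed and heated 15 min at 90 °C, in 12-h-fasted mice, against saline and free-sRNA groups.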

CCCCCC/C=C\CCCCCCCC(=O)OC(CC)C(C)CCC (stereo not shown) [Lipid 827, 4-methylheptan-3-yl (Z)-hexadec-9-enoate]
can effectively orally deliver: oral delivery of single-stranded sRNA nucleic acids into mouse blood | oral delivery of single-stranded sRNA nucleic acids into mouse brain tissue | oral delivery of single-stranded sRNA nucleic acids into mouse femur | oral delivery of single-stranded sRNA nucleic acids into mouse heart tissue | oral delivery of single-stranded sRNA nucleic acids into mouse intestinal tissue | oral delivery of single-stranded sRNA nucleic acids into mouse kidney tissue | oral delivery of single-stranded sRNA nucleic acids into mouse liver tissue | oral delivery of single-stranded sRNA nucleic acids into mouse lung tissue | oral delivery of single-stranded sRNA nucleic acids into mouse pancreatic tissue | oral delivery of single-stranded sRNA nucleic acids into mouse spleen tissue | oral delivery of single-stranded sRNA nucleic acids into mouse stomach tissue

CCCCC/C=C\C/C=C\C/C=C\C/C=C\CCCC(=O)Nc1ccc(S(N)(=O)=O)cc1 [Lipid 826, (5Z,8Z,11Z,14Z)-N-(4-sulfamoylphenyl)icosa-5,8,11,14-tetraenamide]
can effectively orally deliver: oral delivery of single-stranded sRNA nucleic acids into mouse blood | oral delivery of single-stranded sRNA nucleic acids into mouse brain tissue | oral delivery of single-stranded sRNA nucleic acids into mouse femur | oral delivery of single-stranded sRNA nucleic acids into mouse heart tissue | oral delivery of single-stranded sRNA nucleic acids into mouse intestinal tissue | oral delivery of single-stranded sRNA nucleic acids into mouse kidney tissue | oral delivery of single-stranded sRNA nucleic acids into mouse liver tissue | oral delivery of single-stranded sRNA nucleic acids into mouse lung tissue | oral delivery of single-stranded sRNA nucleic acids into mouse pancreatic tissue | oral delivery of single-stranded sRNA nucleic acids into mouse spleen tissue | oral delivery of single-stranded sRNA nucleic acids into mouse stomach tissue

CC=CC(C)=O [Lipid 621]
can effectively orally deliver: oral delivery of single-stranded sRNA nucleic acids into mouse blood | oral delivery of single-stranded sRNA nucleic acids into mouse brain tissue | oral delivery of single-stranded sRNA nucleic acids into mouse femur | oral delivery of single-stranded sRNA nucleic acids into mouse heart tissue | oral delivery of single-stranded sRNA nucleic acids into mouse intestinal tissue | oral delivery of single-stranded sRNA nucleic acids into mouse liver tissue | oral delivery of single-stranded sRNA nucleic acids into mouse lung tissue | oral delivery of single-stranded sRNA nucleic acids into mouse stomach tissue

CCCCCCCCCCCC(C)O (stereo not shown) [Lipid 505, tridecan-2-ol]
can effectively orally deliver: oral delivery of single-stranded sRNA nucleic acids into mouse blood | oral delivery of single-stranded sRNA nucleic acids into mouse brain tissue | oral delivery of single-stranded sRNA nucleic acids into mouse liver tissue | oral delivery of single-stranded sRNA nucleic acids into mouse stomach tissue
